Results taken from patent publication US20090163508A1, “AMIDE COMPOUND” (TAKEDA PHARMACEUTICAL COMPANY LIMITED, priority 2007, published 2009).

Tested on: mouse
Assay: Analgesic effect in acetic acid writhing test on mouse
Type: in vivo
Conditions: po, 20 min, 10 mg/kg orally, 60 minutes before 0.6% acetic acid i.p., count over 20 minutes relative to the reference group
Procedure: A suspension of the test compound (10 mg/kg) was orally administered to a mouse. 60 minutes after the administration, a 0.6% aqueous acetic acid solution was intraperitoneally administered in an amount of 10 mL/kg. The mouse was accommodated in a special cage from immediately after the administration until 20 minutes after, and the writhing response was counted. The mean count number was compared relative to the reference group, so as to examine the difference (student's t-test), and the analgesic effect was evaluated.

Cc1noc(NC(=O)N2CCN(c3ccnc(-c4cccc(F)c4F)n3)CC2)c1C [Example 5, 4-[2-(2,3-difluorophenyl)pyrimidin-4-yl]-N-(3,4-dimethylisoxazol-5-yl)piperazine-1-carboxamide]
response vs control in vivo at 10 mg/kg: 42.2%

Cc1noc(NC(=O)N2CCN(c3cncc(-c4ccc(F)cc4F)n3)CC2)c1C [Example 14, 4-[6-(2,4-difluorophenyl)pyrazin-2-yl]-N-(3,4-dimethylisoxazol-5-yl)piperazine-1-carboxamide]
response vs control in vivo at 10 mg/kg: 67.2%

O=C(Nc1cccnc1)N1CCN(c2nccc(-c3ccc(F)cc3F)n2)CC1 [Example 15, 4-[4-(2,4-difluorophenyl)pyrimidin-2-yl]-N-pyridin-3-ylpiperazine-1-carboxamide]
response vs control in vivo at 10 mg/kg: 66.7%

O=C(Nc1cccnn1)N1CCN(c2nccc(-c3ccc(F)cc3F)n2)CC1 [Example 17, 4-[4-(2,4-difluorophenyl)pyrimidin-2-yl]-N-pyridazin-3-ylpiperazine-1-carboxamide]
response vs control in vivo at 10 mg/kg: 56.9%

Cc1noc(NC(=O)N2CCN(c3cc(-c4ccc(F)cc4F)ncn3)CC2)c1C [Example 19, 4-[6-(2,4-difluorophenyl)pyrimidin-4-yl]-N-(3,4-dimethylisoxazol-5-yl)piperazine-1-carboxamide]
response vs control in vivo at 10 mg/kg: 51.9%

O=C(Nc1cccnc1)N1CCN(c2nccc(-c3ccccc3)n2)CC1 [Example 77, 4-(4-phenylpyrimidin-2-yl)-N-pyridin-3-ylpiperazine-1-carboxamide]
response vs control in vivo at 10 mg/kg: 46.8%

O=C(Nc1cccnn1)N1CCN(c2nccc(-c3ccccc3)n2)CC1 [Example 79, 4-(4-phenylpyrimidin-2-yl)-N-pyridazin-3-ylpiperazine-1-carboxamide]
response vs control in vivo at 10 mg/kg: 38.9%

O=C(Nc1cccnn1)N1CCN(c2nccc(-c3ccc(F)c(F)c3)n2)CC1 [Example 110, 4-[4-(3,4-difluorophenyl)pyrimidin-2-yl]-N-pyridazin-3-ylpiperazin-1-carboxamide]
response vs control in vivo at 10 mg/kg: 34.7%
